# Test results as given in article PMC12610539, “Determination of Gnetol in Murine Biological Matrices by Liquid Chromatography–Tandem Mass Spectrometry (LC–MS/MS): Application in a Biodistribution Study” (International Journal of Molecular Sciences, 2025).
# Where two headings read alike, the source gives them in different places.
# Columns and labels:
# [1] = Stability of stock solutions (1 mg/mL in DMSO); format: physicochemical
# Experimental: (§1) Stock solutions of gnetol and resveratrol-^13C6 (IS) were prepared in DMSO at 1 mg/mL, stored at −20 °C, and protected from light. Calibration standards and QC samples were generated by serially diluting the gnetol stock into pooled blank murine plasma or hepatic homogenate. Stability was assessed under a range of storage and handling conditions. Stock solutions of gnetol and the IS were evaluated after storage on ice (0–4 °C) and at −20 °C. Plasma stability of gnetol was examined under short-term conditions (on ice for 6 h), long-term storage (−80 °C for 7 days), three freeze–thaw cycles, and post-preparative holding (autosampler at 4 °C for 24 h). Because stability is difficult to determine directly in intact tissues, only short-term stability in liver homogenate (on ice for 6 h) was assessed; for processed tissue extracts, post-preparative stability was likewise evaluated using liver homogenate as a representative matrix. Stability was considered acceptable when 85–115% of the initial gnetol concentration remained.
# [2] = in vitro; format: in vitro ADME; conditions: mouse
# Experimental: as §1, with “Stability” for “Stock solutions of gnetol and resveratrol-^13C6 (IS) were prepared in DMSO at 1 mg/mL, stored at −20 °C, and protected from light. Calibration standards and QC samples were generated by serially diluting the gnetol stock into pooled blank murine plasma or hepatic homogenate. Stability”
# [3] = system: tyrosinase; conditions: cited from earlier work
# [4] = system: SARS-CoV-2 main protease; set-up: method as in PMID 39653224; conditions: cited from earlier work
Structure (SMILES),"remaining at 24 h, 1 mg/mL [1]","remaining at 168 h, 1 mg/mL [1]",remaining at 15 ng/mL ([2]; plasma),remaining at 1200 ng/mL ([2]; plasma),"remaining at 6 h, 15 ng/mL ([2]; plasma)","remaining at 6 h, 1200 ng/mL ([2]; plasma)","remaining at 24 h, 15 ng/mL ([2]; plasma)","remaining at 24 h, 1200 ng/mL ([2]; plasma)","remaining at 168 h, 15 ng/mL ([2]; plasma)","remaining at 168 h, 1200 ng/mL ([2]; plasma)","remaining at 6 h, 15 ng/mL ([2]; tissue homogenate)","remaining at 6 h, 1200 ng/mL ([2]; tissue homogenate)","remaining at 24 h, 15 ng/mL ([2]; tissue homogenate)","remaining at 24 h, 1200 ng/mL ([2]; tissue homogenate)",Tyrosinase inhibition [3],Inhibition of SARS-CoV-2 main protease [4],"remaining at 24 h, 1 mg/mL ([1]; stock solution in DMSO, stock solution 1.00 mg/mL, stored at ice-cold temperature for 24 h, n = 6, read-out: Remaining (%, Mean ± SD))","remaining at 168 h, 1 mg/mL ([1]; stock solution in DMSO, stock solution 1.00 mg/mL, stored at −20 °C for 7 days, n = 6, read-out: Remaining (%, Mean ± SD))"
"Oc1cc(O)cc(/C=C/c2c(O)cccc2O)c1 [Gnetol, trans-2,3′,5′,6-tetrahydroxystilbene]",101 ± 5.3%,98.2 ± 3.9%,103 ± 11.6%,112 ± 2.2%,100 ± 7.3%,106 ± 1.8%,94 ± 7.7%,103 ± 7.6%,97.2 ± 6.3%,112 ± 2.5%,96.1 ± 11.3%,110 ± 4.4%,104 ± 4.5%,88.9 ± 6.4%,potent tyrosinase inhibitor,inhibits the SARS-CoV-2 main protease,,
"Oc1cc(O)cc(/C=C/[13c]2[13cH][13cH][13c](O)[13cH][13cH]2)c1 [Resveratrol-^13C6, trans-3,5,4′-trihydroxystilbene-^13C6, reference compound]",,,,,,,,,,,,,,,,,98.2 ± 3.9%,100 ± 3.6%
